Laboratory results reported in patent US6900193B1, “Structural modification of 19-norprogesterone I: 17-α-substituted-11-β-substituted-4-aryl and 21-substituted 19-norpregnadienedione as new antiprogestational agents” (The United States of America as represented by the …, priority 1996, dated 2005).
“Also recorded” adds a separate entry of the source.

Columns and labels:
[1] = system: progesterone-induced endometrial proliferation; assay: AntiClauberg test; format: in vivo, rabbit; parameters: key to ANTIPROGESTATIONAL Anti-Clauberg: relative oral potency vs. reference compound set to 100; conditions: for ANTIPROGESTATIONAL Anti-Clauberg: relative potency; for ANTIPROGESTATIONAL Anti-Clauberg / BIOLOGICAL ACTIVITY antiClauberg: CDB-2914 = 100 (assigned); for antiClauberg / oral antiprogestational activity, in words: versus the standard 69B; for ANTIPROGESTATIONAL ACTIVITY ANTI-CLAUBERG: estrogen-primed immature rabbits, CDB-2477 = 1.0 (assigned); for BIOLOGICAL ACTIVITY antiClauberg: Table 2
Procedure, shortened: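 Immature NZW rabbits were estradiol-primed s.c. for 6 days, then given progesterone 0.8 mg/day s.c. plus compound orally or s.c. for 5 days. Uteri were sectioned and H&E-scored for endometrial glandular proliferation (McPhail). Percent inhibition was calculated per dose versus progesterone-only animals.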

[2] = target: T1, progesterone receptor (estrogen-primed rabbit uterus) (Oryctolagus cuniculus, UniProt P06186); assay: Relative binding affinity, progesterone receptor; conditions: for RELATIVE BINDING AFFINITY Progesterone / BINDING AFFINITY Progester: progesterone = 100%; for binding affinity for the progesterone receptor, in words: rabbit uterine, versus CDB-2914 (69B) where stated; for BINDING AFFINITY Progester: Table 2; for binding affinities compared with the standard, compound 69B: progesterone receptor implied (rabbit or human isoform A not specified)
T1 construct: preparation of cytosols for the progesterone and glucocorticoid receptor assays; from tissue; host or cells: uterus of estradiol-primed immature female New Zealand White rabbits (cytosol)
T1 sequence (P06186 1-930): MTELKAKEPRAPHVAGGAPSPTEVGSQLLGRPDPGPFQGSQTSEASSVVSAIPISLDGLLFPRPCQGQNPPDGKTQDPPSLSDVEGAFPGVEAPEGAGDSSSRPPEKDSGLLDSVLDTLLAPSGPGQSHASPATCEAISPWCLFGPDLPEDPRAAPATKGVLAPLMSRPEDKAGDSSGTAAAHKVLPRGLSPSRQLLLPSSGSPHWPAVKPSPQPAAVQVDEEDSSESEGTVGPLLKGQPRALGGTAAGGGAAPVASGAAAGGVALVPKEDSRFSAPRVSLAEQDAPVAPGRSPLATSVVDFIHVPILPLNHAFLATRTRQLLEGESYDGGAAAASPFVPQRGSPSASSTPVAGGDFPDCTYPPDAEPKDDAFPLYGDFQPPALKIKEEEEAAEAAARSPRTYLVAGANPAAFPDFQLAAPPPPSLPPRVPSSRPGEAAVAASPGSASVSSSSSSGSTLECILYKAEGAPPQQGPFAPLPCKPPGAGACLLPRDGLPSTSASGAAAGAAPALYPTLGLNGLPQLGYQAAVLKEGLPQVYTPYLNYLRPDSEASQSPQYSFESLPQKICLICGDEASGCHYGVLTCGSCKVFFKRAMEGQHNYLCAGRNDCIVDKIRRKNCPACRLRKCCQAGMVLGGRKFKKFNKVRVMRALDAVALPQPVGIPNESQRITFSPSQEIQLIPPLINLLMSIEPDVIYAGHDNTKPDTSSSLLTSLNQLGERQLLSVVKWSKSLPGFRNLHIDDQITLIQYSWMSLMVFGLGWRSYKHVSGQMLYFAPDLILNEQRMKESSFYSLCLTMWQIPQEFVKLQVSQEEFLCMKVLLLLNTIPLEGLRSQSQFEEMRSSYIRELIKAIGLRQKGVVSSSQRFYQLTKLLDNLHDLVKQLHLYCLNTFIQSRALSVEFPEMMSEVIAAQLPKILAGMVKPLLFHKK

SMILES | ANTIPROGESTATIONAL Anti-Clauberg ([1]; oral) | antiClauberg / oral antiprogestational activity, in words ([1]; oral) | RELATIVE BINDING AFFINITY Progesterone ([2]; estrogen-primed rabbit uterus) | binding affinity for the progesterone receptor, in words [2] | BIOLOGICAL ACTIVITY antiClauberg ([1]; oral) | BINDING AFFINITY Progester ([2]; estrogen-primed rabbit uterus) | binding affinities compared with the standard, compound 69B [2] | other results
CC(=O)O[C@]1(C(=O)CO)CCC2C3CCC4=CC(=O)CCC4=C3C(c3ccc(N(C)C)cc3)C[C@@]21C (stereo partly drawn) [Compound 41, 17α-acetoxy-21-hydroxy-11β-[4-(N,N-dimethylamino)phenyl]-19-norpregna-4,9-diene-3,20-dione] | 140 | greater activity than the standard | 62% |  |  |  |  | 
CC#C[C@]1(O)CC[C@H]2[C@@H]3CCC4=CC(=O)CCC4=C3[C@@H](c3ccc(N(C)C)cc3)C[C@@]21C [mifepristone] |  |  |  | greater binding affinity |  |  |  | ANTIPROGESTATIONAL ACTIVITY ANTI-CLAUBERG ([1]; oral): 1.0
CC(=O)O[C@]1(C(C)=O)CC[C@H]2[C@@H]3CCC4=CC(=O)CCC4=C3[C@@H](c3ccc(N(C)C)cc3)C[C@@]21C [Compound 69B, 17α-acetoxy-11β-(4-N,N-dimethylaminophenyl)-19-norpregna-4,9-diene-3,20-dione, reference compound] | 100 |  | 122% |  | 100 | 122% |  | potency of the standard relative to mifepristone in the antiClauberg test ([1]; oral administration): 3 times; ANTIPROGESTATIONAL ACTIVITY ANTI-CLAUBERG ([1]; oral): 3.27; potency of 69B relative to mifepristone in the antiClauberg test ([1]; oral, 95% C.I.=1.41-7.58, previous studies): 3.27 ×; RELATIVE BINDING AFFINITY Progesterone ([2]; Table 3, immature estrogen-primed rabbit uterus): 114- %
CC(=O)O[C@]1(C(C)=O)CC[C@H]2[C@@H]3CCC4=CC(=O)CCC4=C3[C@@H](c3ccc(N4CCCCC4)cc3)C[C@@]21C [Compound 71, 17α-Acetoxy-11β-[4(N-Piperidino)phenyl]-19-norpregna-4,9-diene-3,20-dione] |  | greater activity than the standard |  |  | 253 | 123% | binding affinities greater than that observed for the standard | 
COCC(=O)C1(OC(C)=O)CCC2C3CCC4=CC(=O)CCC4=C3C(c3ccc(N4CCCCC4)cc3)CC21C (stereo not drawn) [Compound 123a, 17α-Acetoxy-1113-[4-(N-piperidino)phenyl]-21-methoxy-19-norpregna-4,9-diene-3,20-dione] |  |  |  |  | 45-83 | 174% |  | 
CC(=O)O[C@]1(C(=O)CF)CCC2C3CCC4=CC(=O)CCC4=C3C(c3ccc(N(C)C)cc3)C[C@@]21C (stereo partly drawn) [Compound 13, 17α-acetoxy-21-fluoro-11β-[4-(N,N-dimethylamino)phenyl]-19-norpregna-4,9-diene-3,20-dione] | 80 |  | 125% | did not show significant differences |  |  | binding affinities greater than that observed for the standard | 
COCC(=O)[C@@]1(OC)CC[C@H]2[C@@H]3CCC4=CC(=O)CCC4=C3[C@@H](c3ccc(N(C)C)cc3)C[C@@]21C [Compound 113a, 17α,21-Dimethoxy-11β-[4-(N,N-dimethylamino)phenyl]-19-norpregna-4,9-diene-3,20-dione] |  | greater activity than the standard; also recorded: more than twice as active at the standard |  | high binding affinity | 229 | 117% | binding affinities greater than that observed for the standard | 
CN(C)c1ccc(C2CC3(C)C(CCC34OCC4=O)C3CCC4=CC(=O)CCC4=C23)cc1 (stereo not drawn) [Compound 12, 17-Spirooxetano-3′-oxo-11β-[4-(N,N-dimethylamino)phenyl]-19-norpregna-4,9-dien-3-one] | 29 |  | 261% |  |  |  | binding affinities greater than that observed for the standard | 
CC(=O)OCC(=O)[C@@]1(OC(C)=O)CC[C@H]2[C@@H]3CCC4=CC(=O)CCC4=C3[C@@H](c3ccc(C(C)=O)cc3)C[C@@]21C [Compound 106b, 17α,21-Diacetoxy-11β-(4-acetylphenyl)19-norpregna-4,9-diene-3,20-dione] |  |  |  |  | 34 | 136% | binding affinities greater than that observed for the standard | 
CC(=O)O[C@]1(C(=O)CCl)CCC2C3CCC4=CC(=O)CCC4=C3C(c3ccc(N(C)C)cc3)C[C@@]21C (stereo partly drawn) [Compound 14A] | 68 |  | 127% | did not show significant differences |  |  | binding affinities greater than that observed for the standard | 
CC(=O)OCC(=O)[C@@]1(OC(C)=O)CCC2C3CCC4=CC(=O)CCC4=C3C(c3ccc(N(C)C)cc3)C[C@@]21C (stereo partly drawn) [Compound 15, 17α,21-diacetoxy-11β-[4-(N,N-dimethylamino)phenyl]-19-norpregna-4,9-diene-3,20-dione] | 279 | greater activity than the standard | 103% |  |  |  |  | antiprogestational potency compared to the lead compound (CDB-2914), oral antiClauberg test ([1]; oral, versus CDB-2914): 2.79 times
